Assay results: PubChem BioAssay AID504687 (Sanford-Burnham Center for Chemical Genomics, 2011)
pIC50: −log10 of the molar value. Several values for one entry are separate records, joined by “and”; a condition that tells them apart may be missing. Equal entries are not always repeated. Activity calls are given as the source filed them. No rule for the calls is given here.

target: Ubiquitin-conjugating enzyme E2 N (Homo sapiens) (UniProt P61088); assay: UBC13 polyubiquitin chain formation inhibitors, SAR follow-up, biochemical, TR-FRET (AID 504687)
Sequence (P61088 whole entry, looked up): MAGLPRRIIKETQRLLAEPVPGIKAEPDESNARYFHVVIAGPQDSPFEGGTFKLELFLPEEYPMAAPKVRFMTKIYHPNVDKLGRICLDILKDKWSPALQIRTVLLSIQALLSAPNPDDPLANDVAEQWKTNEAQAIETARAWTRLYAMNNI

Going from `COc1cc(/C=C/c2cc[n+](C)cc2)ccc1OCC(=O)Nc1ccc(Cl)c(Cl)c1` to `CNCc1cc(Br)c(OCC(=O)Nc2ccccc2OC)c(OC)c1`, the pIC50 falls from 5.46 to 5.20 (0.26 log units). The first is the more potent here.

First: Cc1cc(C)c2sc(N(CCCN(C)C)C(=O)c3ccc(S(=O)(=O)N(C)C4CCCCC4)cc3)nc2c1
Second: Cc1cc(C)c2sc(N(CCCN(C)C)C(=O)c3ccc(S(=O)(=O)N(C)Cc4ccccc4)cc3)nc2c1
The pIC50 of the first is 0.69 log units lower: 5.13 for the first, 5.82 for the second.

Compared with `O=C1c2cccc3cccc(c23)C(=O)N1CC1CCN(CC(O)COCc2ccc3c(c2)OCO3)CC1` (configuration not stated), `COc1ccc(COCC(O)CN2CCC(CN3C(=O)c4cccc5cccc(c45)C3=O)CC2)cc1OC` (configuration not stated) is 0.47 log units lower in pIC50: 5.72 for the first, 5.25 for the second. The first is the more potent here.

Going from `O=C(CCCCCN1C(=O)c2cccc3cccc(c23)C1=O)NCc1cccnc1` to `O=C(CCCCCN1C(=O)c2cccc3cccc(c23)C1=O)NCCO`, the pIC50 falls from 5.29 to 4.90 (0.39 log units). The first is the more potent here.

`O=C(CCCn1c(=O)c2ccccc2n(Cc2cccc([N+](=O)[O-])c2)c1=O)NC1CCN(Cc2ccccc2)CC1` and `O=C(CCCn1c(=O)c2ccccc2n(Cc2ccc(Cl)cc2)c1=O)NC1CCN(Cc2ccccc2)CC1` are within 0.2 log units of each other in pIC50: 6.47 for the first, 6.46 for the second.

Going from `COc1ccc(C(=O)Nn2c(C)nc3ccccc3c2=O)cc1` to `Cc1nc2ccccc2c(=O)n1NC(=O)c1ccc(OC(F)F)cc1`, the pIC50 falls from 5.63 to 4.82 (0.81 log units). The first is the more potent here.

Going from `Cc1cc(NC(=O)Cn2c(=O)n(CCCCC(=O)NC3CCN(Cc4ccccc4)CC3)c(=O)c3ccccc32)n[nH]1` to `N#Cc1ccccc1Cn1c(=O)n(CCCC(=O)NC2CCN(Cc3ccccc3)CC2)c(=O)c2ccccc21`, the pIC50 rises from 4.89 to 6.20 (1.31 log units).

Compared with `CN(C)CCCN(C(=O)c1ccc(S(=O)(=O)N2CCCCC2)cc1)c1nc2cc3c(cc2s1)OCO3`, `CN(C)CCCN(C(=O)c1ccc(S(=O)(=O)N2CCCCCC2)cc1)c1nc2cc3c(cc2s1)OCCO3` is 0.58 log units higher in pIC50: 5.09 for the first, 5.67 for the second. The second is the more potent here.

Compared with `O=C(CCCCCN1C(=O)c2ccccc2C1=O)Nc1ccc(S(=O)(=O)N2CCCCC2)cc1`, `O=C(CCCCCN1C(=O)c2ccccc2C1=O)NCc1ccco1` is 1.59 log units lower in pIC50: 6.33 for the first, 4.74 for the second. The first is the more potent here.

Going from `CN(C)CCCN(C(=O)c1ccc(C(=O)c2ccccc2)cc1)c1nc2cc3c(cc2s1)OCCO3` to `COc1cc2nc(N(CCCN(C)C)C(=O)c3ccc(S(=O)(=O)N4CCc5ccccc5C4)cc3)sc2cc1OC`, the pIC50 falls from 5.80 to 5.42 (0.38 log units).

First: CCOc1cccc2sc(N(CCCN(C)C)C(=O)c3ccc(S(=O)(=O)N4CCc5ccccc5C4)cc3)nc12
Second: COc1cccc2sc(N(CCCN(C)C)C(=O)c3ccc(S(=O)(=O)N4CCc5ccccc5C4)cc3)nc12
The pIC50 of the first is 0.34 log units lower: 5.39 for the first, 5.73 for the second. The second is the more potent here.

Going from `O=C(C1CCN(c2ncnc3c2nc2n3CCCCC2)CC1)N1CCN(Cc2ccccc2)CC1` to `CCCN1CCN(C(=O)C2CCN(c3ncnc4c3nc3n4CCCCC3)CC2)CC1`, the pIC50 rises from 5.19 to 5.47 (0.28 log units). The second is the more potent here.

Going from `Cc1ccc2nc(N(CCCN(C)C)C(=O)c3ccc4c(c3)CCCC4)sc2c1` to `CN(C)CCCN(C(=O)c1ccc(S(=O)(=O)N2CCCCCC2)cc1)c1nc2ccc(Br)cc2s1`, the pIC50 rises from 4.98 to 5.23 (0.25 log units). The second is the more potent here.

`O=C(NCC1CCN(Cc2ccc(F)cc2)CC1)C1CCCN(c2ncnc3c2nc2n3CCCCC2)C1` (configuration not stated) and `O=C(NCC1CCN(Cc2ccc(Cl)cc2)CC1)C1CCCN(c2ncnc3c2nc2n3CCCCC2)C1` (configuration not stated) are within 0.2 log units of each other in pIC50: 5.45 for the first, 5.36 for the second.

`C=CCc1ccccc1OCC(O)CN1CCN(CCN2C(=O)c3cccc4cccc(c34)C2=O)CC1` (configuration not stated) and `Cc1ccccc1OCC(O)CN1CCN(CCN2C(=O)c3cccc4cccc(c34)C2=O)CC1` (configuration not stated) are within 0.2 log units of each other in pIC50: 4.93 for the first, 4.89 for the second.

First: O=C1c2cccc3cccc(c23)C(=O)N1CCN1CCN(CC(O)COc2ccc(C3CCCCC3)cc2)CC1 (configuration not stated)
Second: CC(=O)Nc1ccc(OCC(O)CN2CCN(CCN3C(=O)c4cccc5cccc(c45)C3=O)CC2)cc1 (configuration not stated)
The pIC50 of the first is 0.46 log units higher: 5.22 for the first, 4.76 for the second.

Going from `CCC1CCCCN1CCCNC(=O)C1CCN(c2ncnc3c2nc2n3CCCCC2)CC1` (configuration not stated) to `O=C(NCCCN1CCCCC1)C1CCN(c2ncnc3c2nc2n3CCCCC2)CC1`, the pIC50 rises from 5.14 to 5.34 (0.20 log units). The second is the more potent here.

Going from `CN(C)CCCn1c(SCC(=O)Nc2nc(-c3cccc(Br)c3)cs2)nc2ccccc2c1=O` to `CC(NC(=O)CCCCCN1C(=O)c2ccccc2C1=O)c1nc(-c2ccccc2)no1` (configuration not stated), the pIC50 falls from 5.38 to 4.97 (0.41 log units).

Going from `O=C(CCCCCN1C(=O)c2cccc([N+](=O)[O-])c2C1=O)NCc1ccccc1` to `O=C(CCCCCN1C(=O)c2ccccc2C1=O)NCCc1nc2ccccc2[nH]1`, the pIC50 rises from 4.79 to 4.99 (0.20 log units). The second is the more potent here.

`Cc1ccc2c(c1)C1CN(C)CCC1N2C(=O)CCCN1C(=O)c2cccc3cccc(c23)C1=O` (configuration not stated) and `Cc1ccc(OCC(O)CN2CCN(CCN3C(=O)c4cccc5cccc(c45)C3=O)CC2)c(C)c1` (configuration not stated) are within 0.2 log units of each other in pIC50: 5.41 for the first, 5.32 for the second.

First: O=C(Nc1ccc(F)c(Cl)c1)C1CCN(c2ncnc3c2nc2n3CCCCC2)CC1
Second: Cc1ccc(NC(=O)C2CCN(c3ncnc4c3nc3n4CCCCC3)CC2)cc1Cl
The pIC50 of the first is 0.22 log units lower: 5.22 for the first, 5.44 for the second. The second is the more potent here.

First: CN1CCN(CCCNC(=O)c2ccc(/C=C3\Oc4ccccc4N(Cc4ccc(Cl)cc4)C3=O)cc2)CC1
Second: NNC(=O)c1ccc(CN2C(=O)c3cccc4cccc2c34)cc1
The pIC50 of the first is 0.39 log units lower: 5.36 for the first, 5.75 for the second. The second is the more potent here.

First: O=C1c2cccc3cccc(c23)C(=O)N1CCN1CCN(CC(O)COc2ccc3ccccc3c2)CC1 (configuration not stated)
Second: Cc1ccc(C)c(OCC(O)CN2CCN(CCN3C(=O)c4cccc5cccc(c45)C3=O)CC2)c1 (configuration not stated)
The pIC50 of the first is 0.61 log units higher: 5.87 for the first, 5.26 for the second. The first is the more potent here.

`O=C1c2cccc3cccc(c23)N1Cc1ccc(F)cc1` and `Cc1c(NC(=O)CCCN2C(=O)c3cccc4cccc(c34)C2=O)c(=O)n(-c2ccccc2)n1C` are within 0.2 log units of each other in pIC50: 5.45 for the first, 5.58 for the second.

`O=C(NCCCN1CCN(c2ccccc2)CC1)C1CCCN(c2ncnc3c2nc2n3CCCCC2)C1` (configuration not stated) and `Cc1ccccc1CN1CCC(CNC(=O)C2CCCN(c3ncnc4c3nc3n4CCCCC3)C2)CC1` (configuration not stated) are within 0.2 log units of each other in pIC50: 5.37 for the first, 5.33 for the second.

Compared with `COc1ccc(C)c2sc(N(CCCN(C)C)C(=O)c3ccc(S(=O)(=O)N(C)C)cc3)nc12`, `Cc1cc(C)c2sc(N(CCCN(C)C)C(=O)c3ccc(S(=O)(=O)N4CCc5ccccc5C4)cc3)nc2c1` is 0.58 log units higher in pIC50: 5.06 for the first, 5.64 for the second.

`Cc1[nH]c2c(Cl)c(Cl)ccc2c1CCNC(=O)CCCCCN1C(=O)c2ccccc2C1=O` showed a pIC50 of 6.17.

For `CC1CC(C)CN(C(=O)C2CCN(c3ncnc4c3nc3n4CCCCC3)CC2)C1` (configuration not stated), the IC50 was > 100 µM (inactive).
`COCCOC(=O)c1ccc(NC(=O)CCCCCN2C(=O)c3ccccc3C2=O)cc1` was tested, and the IC50 was > 100 µM (inactive).
`Cc1cc(NS(=O)(=O)c2ccc(NC(=O)CCCCCN3C(=O)c4ccccc4C3=O)cc2)nc(C)n1` was tested, and the IC50 was > 100 µM (inactive).
`CC(NC(=O)CCCCCN1C(=O)c2cccc([N+](=O)[O-])c2C1=O)c1ccccc1` (configuration not stated) was tested, and the IC50 was “inactive”.
With `CCCCOC(=O)c1cccc(NC(=O)CCCCCN2C(=O)c3ccccc3C2=O)c1` the IC50 was “inactive”.
`O=C(CCCCCN1C(=O)c2ccccc2C1=O)N1CCN(c2ccc([N+](=O)[O-])cc2)CC1` was tested, and the IC50 was > 100 µM (inactive).
With `CC1CCCCN1C(=O)C1CCN(c2ncnc3c2nc2n3CCCCC2)CC1` (configuration not stated) the IC50 was “inactive”.
For `O=C(CCCCCN1C(=O)c2ccccc2C1=O)Nc1nc(C2CC2)cs1`, the IC50 was > 100 µM (inactive).
For `O=C(C1CCN(c2ncnc3c2nc2n3CCCCC2)CC1)N1CCN(c2ccccn2)CC1`, the IC50 was “inactive”.
With `O=C(CCCCCN1C(=O)c2ccccc2C1=O)NCc1ccccn1` the IC50 was “inactive”.
For `O=C(C1CCN(c2ncnc3c2nc2n3CCCCC2)CC1)N1CCOCC1`, the IC50 was “inactive”.
`O=C(C1COc2ccccc2O1)N1CCN(CCN2C(=O)c3cccc4cccc(c34)C2=O)CC1` (configuration not stated) was tested, and the IC50 was > 100 µM (inactive).
For `COC(=O)C1=C(NC(=O)CCCCCN2C(=O)c3ccccc3C2=O)SC2CCCC12` (configuration not stated), the IC50 was > 100 µM (inactive).

For `COc1cccc(OCC(O)CN2CCN(CCN3C(=O)c4cccc5cccc(c45)C3=O)CC2)c1` (configuration not stated), the pIC50 was 5.00 and 5.04.
